This is an account of results in patent US8802711B2, “TRPV1 antagonists” (AbbVie Inc., priority 2011, dated 2014).

For orientation: IC50 means the concentration that inhibits the measured activity by half.

Test [1] deals with T1, human TRPV1 receptor (hTRPV1) (Homo sapiens (Human), UniProt Q8NER1). The test can be described thus: Acid activation assay (pH 5.0, FLIPR intracellular Ca2+). The class given is cell-based. The conditions noted are these: Table 1, 37.5 μM antagonist, percentage of the maximal pH 5.0-induced response remaining; for remaining activity at 37.5 µM: read-out: hTRPV1 H+ (max % remain). In short, it runs like this:
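Antagonism of acid-evoked Ca2+ influx measured by FLIPR Calcium-4 fluorescence after a pH 5.0 DPBS/MES stimulus, with compounds preincubated 3 min over 12 half-log concentrations. Cells: stable hTRPV1-expressing 1321N1 line, dye-loaded 90–120 min in the dark at 25 °C.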

The target in test [2] is T1, human TRPV1 receptor (hTRPV1). The test can be described thus: Capsaicin activation assay (FLIPR intracellular Ca2+). It counts as cell-based. The conditions noted are these: Table 1; inhibition of capsaicin-induced intracellular Ca2+ increase, HEK293 cells expressing human TRPV1; read-out: hTRPV1 cap IC50. The method in brief: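 Antagonism measured as [Ca2+]i fluorescence on FLIPR Tetra: compounds given 3 min ahead of capsaicin, added as 200 nM (4×), to dye-loaded hTRPV1-HEK293 cells. Response taken as baseline-subtracted peak, normalized to the 50 nM capsaicin control; 12-point one-third-log titrations.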

T1 sequence (Q8NER1 whole entry): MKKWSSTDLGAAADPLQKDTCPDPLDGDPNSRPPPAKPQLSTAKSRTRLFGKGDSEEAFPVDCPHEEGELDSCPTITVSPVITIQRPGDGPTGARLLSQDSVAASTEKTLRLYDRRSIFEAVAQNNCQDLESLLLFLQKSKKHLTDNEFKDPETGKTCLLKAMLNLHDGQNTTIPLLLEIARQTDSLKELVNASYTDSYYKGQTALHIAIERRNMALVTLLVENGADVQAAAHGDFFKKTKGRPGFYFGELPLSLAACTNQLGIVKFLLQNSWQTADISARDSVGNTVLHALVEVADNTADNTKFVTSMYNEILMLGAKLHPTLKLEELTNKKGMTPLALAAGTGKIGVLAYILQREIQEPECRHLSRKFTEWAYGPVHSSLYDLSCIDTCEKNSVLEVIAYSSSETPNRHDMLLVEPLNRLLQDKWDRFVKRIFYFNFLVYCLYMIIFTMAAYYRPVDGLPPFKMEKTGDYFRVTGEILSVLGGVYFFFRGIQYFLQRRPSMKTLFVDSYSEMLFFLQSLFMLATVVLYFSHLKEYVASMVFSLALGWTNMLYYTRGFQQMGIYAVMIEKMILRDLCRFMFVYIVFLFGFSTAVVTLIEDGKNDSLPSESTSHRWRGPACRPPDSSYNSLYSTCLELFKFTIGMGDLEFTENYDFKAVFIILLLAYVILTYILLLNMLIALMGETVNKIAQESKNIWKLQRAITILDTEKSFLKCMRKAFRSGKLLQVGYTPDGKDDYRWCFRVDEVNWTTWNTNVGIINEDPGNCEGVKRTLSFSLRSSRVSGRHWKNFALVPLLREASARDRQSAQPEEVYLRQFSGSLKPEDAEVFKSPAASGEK

Take `O=C(Nc1ccc2c(c1)NC(=O)N(CCO)C2)N[C@H]1CC[C@@H](c2ccccc2F)C1` [Example 117, 1-[(1S,3R)-3-(2-fluorophenyl)cyclopentyl]-3-[3-(2-hydroxyethyl)-2-oxo-1,2,3,4-tetrahydroquinazolin-7-yl]urea]: in test [1], the remaining activity at 37.5 µM is 47%. For the same compound, in test [2], the IC50 was 804 nM.

For the compound `O=C(Nc1cccc2[nH]ncc12)N[C@H]1CC[C@H](c2ccc(C(F)(F)F)cc2)C1` [Example 41, 1-(1H-indazol-4-yl)-3-{(1S,3S)-3-[4-(trifluoromethyl)phenyl]cyclopentyl}urea], in test [1], the remaining activity at 37.5 µM is 1%. In addition, the IC50 in test [2] was determined as 311 nM.

Regarding `O=C(Nc1cccc2c1C[C@H](O)C2)N[C@H]1C[C@@H](c2ccccc2)C1` [Example 60, 1-[(2R)-2-hydroxy-2,3-dihydro-1H-inden-4-yl]-3-(cis-3-phenylcyclobutyl)urea], in test [1], the remaining activity at 37.5 µM is 72%. For the same compound, the IC50 in test [2] came to 331 nM.

With `Cn1ncc2c(NC(=O)N[C@@H]3CC[C@@H](c4ccccc4)C3)cccc21` [Example 18, 1-(1-methyl-1H-indazol-4-yl)-3-[(1R,3R)-3-phenylcyclopentyl]urea], the remaining activity at 37.5 µM in test [1] turned out to be 18%. Further, the IC50 in test [2] was 70 nM.

Regarding `O=C(Nc1cccc2c1CCC2)N[C@H]1CC[C@@H](c2ccccc2)C1` [Example 124, 1-(2,3-dihydro-1H-inden-4-yl)-3-[(1S,3R)-3-phenylcyclopentyl]urea], in test [1], the remaining activity at 37.5 µM is 50%. Further, in test [2], the IC50 turned out to be 6480 nM.

For the compound `O=C(Nc1cccc2[nH]ncc12)N[C@H]1CC[C@@H](c2ccc(C(F)(F)F)cc2)C1` [Example 43, 1-(1H-indazol-4-yl)-3-{(1S,3R)-3-[4-(trifluoromethyl)phenyl]cyclopentyl}urea], the remaining activity at 37.5 µM in test [1] was 55%. The IC50 in test [2] was found to be 221 nM.

For the compound `Cn1c(=O)ccc2c(NC(=O)N[C@@H]3CC[C@@H](c4ccccc4F)C3)cccc21` [Example 81, 1-[(1R,3R)-3-(2-fluorophenyl)cyclopentyl]-3-(1-methyl-2-oxo-1,2-dihydroquinolin-5-yl)urea], the remaining activity at 37.5 µM in test [1] was 66%. Moreover, the concentration for half-maximal inhibition (IC50) in test [2] turned out to be 2.3 nM.

Turning to `O=C(Nc1cccc2c1C[C@@H](O)C2)N[C@H]1CC[C@@H](c2ccccc2F)C1` [Example 89, 1-[(1S,3R)-3-(2-fluorophenyl)cyclopentyl]-3-[(2S)-2-hydroxy-2,3-dihydro-1H-inden-4-yl]urea], the remaining activity at 37.5 µM in test [1] came out at 15%. Also, in test [2], the IC50 is 88 nM.

On to `CN1C(=O)CCc2ccc(NC(=O)N[C@H]3CC[C@@H](c4ccccc4F)C3)cc21` [Example 110, 1-[(1S,3R)-3-(2-fluorophenyl)cyclopentyl]-3-(1-methyl-2-oxo-1,2,3,4-tetrahydroquinolin-7-yl)urea], for which the remaining activity at 37.5 µM in test [1] turned out to be 72%. Moreover, in test [2], the IC50 was more than 37500 nM.

Take `O=C(Nc1cccc2[nH]ncc12)N[C@@H]1C[C@H](c2ccccc2)[C@@H]2[C@H]1C2(F)F` [Example 54, 1-((1R,2R,4S,5R)-6,6-difluoro-4-phenylbicyclo[3.1.0]hex-2-yl)-3-(1H-indazol-4-yl)urea]: in test [1], the remaining activity at 37.5 µM is 69%. Moreover, in test [2], the IC50 was 1340 nM.

As to `CCc1cc2c(NC(=O)N[C@@H]3CC[C@H](c4ccccc4)C3)c(F)ccc2cn1` [Example 140, 1-(3-ethyl-6-fluoroisoquinolin-5-yl)-3-[(1R,3S)-3-phenylcyclopentyl]urea], the remaining activity at 37.5 µM in test [1] was determined as 90%. For the same compound, the IC50 in test [2] amounted to 9600 nM.

On to `O=C(Nc1cccc2c1C[C@H](O)CC2)N[C@@H]1CC[C@@H](c2ccccc2)C1` [Compound E, 1-[(7R)-7-hydroxy-5,6,7,8-tetrahydronaphthalen-1-yl]-3-[(1R,3R)-3-phenylcyclopentyl]urea, reference compound], for which the remaining activity at 37.5 µM in test [1] was found to be 1%. In addition, the IC50 in test [2] amounted to 5 nM.

Turning to `Cc1cc2c(NC(=O)N[C@@H]3CC[C@@H](c4nc(C)cs4)C3)c(F)ccc2cn1` [Example 133, 1-(6-fluoro-3-methylisoquinolin-5-yl)-3-[(1R,3R)-3-(4-methyl-1,3-thiazol-2-yl)cyclopentyl]urea], the remaining activity at 37.5 µM in test [1] was 16%. Moreover, the IC50 in test [2] was determined as 507 nM.

For `O=C(Nc1cccc2c1CCCC2)N[C@@H]1CC[C@H](c2ccccc2)C1` [Example 138, 1-[(1R,3S)-3-phenylcyclopentyl]-3-(5,6,7,8-tetrahydronaphthalen-1-yl)urea], the remaining activity at 37.5 µM in test [1] was 0%. Also, the IC50 in test [2] amounted to 156 nM.

Take `Cc1cc2c(NC(=O)N[C@@H]3CC[C@@](C)(c4ccccc4)C3)c(F)ccc2cn1` [Example 75, 1-(6-fluoro-3-methylisoquinolin-5-yl)-3-[(1R,3R)-3-methyl-3-phenylcyclopentyl]urea]: in test [1], the remaining activity at 37.5 µM came to 16%. Moreover, in test [2], the IC50 is 21 nM.

As for `CN1C(=O)CCc2c(NC(=O)N[C@@H]3CC[C@H](c4ccccc4)C3)cccc21` [Example 94, 1-(1-methyl-2-oxo-1,2,3,4-tetrahydroquinolin-5-yl)-3-[(1R,3S)-3-phenylcyclopentyl]urea], in test [1], the remaining activity at 37.5 µM came to 46%. Also, the IC50 in test [2] worked out at 14 nM.

In the case of `O=C(Nc1cccc2[nH]ncc12)N[C@H]1CC[C@@](O)(c2ccccc2)C1` (relative stereo) [Example 58, 1-[(trans)-3-hydroxy-3-phenylcyclopentyl]-3-(1H-indazol-4-yl)urea], in test [1], the “hTRPV1 H+ (max % remain)” value was determined as 53%. The IC50 in test [2] was 8640 nM.

As for `O=C(Nc1cccc2[nH]ncc12)N[C@@H]1CC[C@H](c2ccc(C(F)(F)F)cc2)C1` [Example 42, 1-(1H-indazol-4-yl)-3-{(1R,3S)-3-[4-(trifluoromethyl)phenyl]cyclopentyl}urea], in test [1], the remaining activity at 37.5 µM turned out to be 3%. Moreover, the IC50 in test [2] amounted to 17 nM.

For `Cn1ncc2c(NC(=O)N[C@@H]3CC[C@@H](c4ccccc4F)C3)cccc21` [Example 103, 1-[(1R,3R)-3-(2-fluorophenyl)cyclopentyl]-3-(1-methyl-1H-indazol-4-yl)urea], in test [1], the remaining activity at 37.5 µM amounted to 19%. The IC50 in test [2] is 14 nM.

In the case of `Cc1cc2c(NC(=O)N[C@H]3CC[C@H](c4ccccc4F)C3)c(F)ccc2cn1` [Example 71, 1-(6-fluoro-3-methylisoquinolin-5-yl)-3-[(1S,3S)-3-(2-fluorophenyl)cyclopentyl]urea], the remaining activity at 37.5 µM in test [1] worked out at 15%. Also, the IC50 in test [2] is 8.6 nM.

For the compound `O=C(Nc1ccc2c(c1)NC(=O)N(CCO)C2)N[C@H]1CC[C@@H](c2ccccc2)C1` [Example 113, 1-[3-(2-hydroxyethyl)-2-oxo-1,2,3,4-tetrahydroquinazolin-7-yl]-3-[(1S,3R)-3-phenylcyclopentyl]urea], in test [1], the remaining activity at 37.5 µM is 50%. For the same compound, the IC50 in test [2] was found to be 7700 nM.

Consider `O=C(Nc1cccc2c1C[C@@H](O)C2)N[C@@H]1CC[C@@H](c2ccccc2)C1` [Example 16, 1-[(2S)-2-hydroxy-2,3-dihydro-1H-inden-4-yl]-3-[(1R,3R)-3-phenylcyclopentyl]urea], for which the remaining activity at 37.5 µM in test [1] came out at 87%. Also, in test [2], the IC50 worked out at 80 nM.

Turning to `O=C(Nc1cccc2c1CCC2)N[C@H]1CC[C@H](c2ccccc2)C1` [Example 112, 1-(2,3-dihydro-1H-inden-4-yl)-3-[(1S,3S)-3-phenylcyclopentyl]urea], the remaining activity at 37.5 µM in test [1] was found to be 35%. Moreover, the IC50 in test [2] came out at 1370 nM.

Take `CN1C(=O)CCc2c(NC(=O)N[C@@H]3CC[C@@H](c4ccccc4F)C3)cccc21` [Example 99, 1-[(1R,3R)-3-(2-fluorophenyl)cyclopentyl]-3-(1-methyl-2-oxo-1,2,3,4-tetrahydroquinolin-5-yl)urea]: the remaining activity at 37.5 µM in test [1] turned out to be 46%. The half-maximal inhibitory concentration (IC50) in test [2] is 16 nM.

`CN1CCOc2ccc(NC(=O)N[C@@H]3CC[C@H](c4ccccc4)C3)cc21` [Example 145, 1-(4-methyl-3,4-dihydro-2H-1,4-benzoxazin-6-yl)-3-[(1R,3S)-3-phenylcyclopentyl]urea]: the remaining activity at 37.5 µM in test [1] worked out at 91%. Further, the IC50 in test [2] worked out at 614 nM.

Turning to `Cc1cc2c(NC(=O)N[C@H]3CC[C@@H](c4nc(C)cs4)C3)c(F)ccc2cn1` [Example 135, 1-(6-fluoro-3-methylisoquinolin-5-yl)-3-[(1S,3R)-3-(4-methyl-1,3-thiazol-2-yl)cyclopentyl]urea], in test [1], the remaining activity at 37.5 µM was determined as 57%. Also, the IC50 in test [2] worked out at 1790 nM.

`O=C(Nc1cccc2[nH]ncc12)N[C@H]1C=C[C@@H](c2ccccc2)C1` [Example 63, 1-(1H-indazol-4-yl)-3-[(1R,4S)-4-phenylcyclopent-2-en-1-yl]urea]: in test [1], the remaining activity at 37.5 µM amounted to 38%. The concentration for half-maximal inhibition (IC50) in test [2] was 122 nM.

Regarding `Cn1ncc2c(NC(=O)N[C@H]3CC[C@@H](c4cccc(F)c4)C3)cccc21` [Example 102, 1-[(1S,3R)-3-(3-fluorophenyl)cyclopentyl]-3-(1-methyl-1H-indazol-4-yl)urea], the remaining activity at 37.5 µM in test [1] stood at 34%. Further, in test [2], the IC50 is 218 nM.

For the compound `Cn1c(=O)ccc2c(NC(=O)N[C@H]3CC[C@H](c4ccccc4)C3)cccc21` [Example 118, 1-(1-methyl-2-oxo-1,2-dihydroquinolin-5-yl)-3-[(1S,3S)-3-phenylcyclopentyl]urea], the remaining activity at 37.5 µM in test [1] came to 50%. Also, the half-inhibitory concentration (IC50) in test [2] was more than 37500 nM.
